Measurements: the NIST ThermoML archive (doi:10.1016/j.tca.2014.07.022)
± gives the expanded uncertainty stated by the source.

Test: xn = mol fraction of the nth substance listed
Conditions: 100 kPa, Liquid; for viscosity: Concentric cylinders viscometry; for mass density: Vibrating tube method

CC(=O)CC(C)C [4-methylpentan-2-one] + CC(C)O
Conditions	mass density [kg/m3]	viscosity [mPa·s]
293.15 K, x1 = 0.067	786.4 ± 0.3	1.722 ± 0.037
293.15 K, x1 = 0.1344	787.5 ± 0.3	1.361 ± 0.029
293.15 K, x1 = 0.2044	788.6 ± 0.3	1.141 ± 0.024
293.15 K, x1 = 0.3035	790.2 ± 0.3	0.962 ± 0.021
293.15 K, x1 = 0.3848	791.4 ± 0.3	0.856 ± 0.019
293.15 K, x1 = 0.5098	793.4 ± 0.3	0.737 ± 0.016
293.15 K, x1 = 0.5987	794.7 ± 0.3	0.691 ± 0.015
293.15 K, x1 = 0.6986	796.3 ± 0.3	0.651 ± 0.014
293.15 K, x1 = 0.8138	798 ± 0.3	0.619 ± 0.014
293.15 K, x1 = 0.9278	799.8 ± 0.3	0.605 ± 0.014
293.15 K, x1 = 1	800.8 ± 0.3	0.588 ± 0.013
298.15 K, x1 = 0.067	782.1 ± 0.3	1.516 ± 0.032
298.15 K, x1 = 0.1344	783.1 ± 0.3	1.217 ± 0.026
298.15 K, x1 = 0.2044	784.1 ± 0.3	1.029 ± 0.022
298.15 K, x1 = 0.3035	785.6 ± 0.3	0.877 ± 0.019
298.15 K, x1 = 0.3848	786.8 ± 0.3	0.784 ± 0.017
298.15 K, x1 = 0.5098	788.6 ± 0.3	0.684 ± 0.015
298.15 K, x1 = 0.5987	790 ± 0.3	0.64 ± 0.014
298.15 K, x1 = 0.6986	791.5 ± 0.3	0.608 ± 0.014
298.15 K, x1 = 0.8138	793.2 ± 0.3	0.581 ± 0.013
298.15 K, x1 = 0.9278	795 ± 0.3	0.568 ± 0.013
298.15 K, x1 = 1	796.1 ± 0.3	0.554 ± 0.013
303.15 K, x1 = 0.067	777.7 ± 0.3	1.346 ± 0.029
303.15 K, x1 = 0.1344	778.6 ± 0.3	1.09 ± 0.023
303.15 K, x1 = 0.2044	779.6 ± 0.3	0.932 ± 0.02
303.15 K, x1 = 0.3035	781 ± 0.3	0.8 ± 0.017
303.15 K, x1 = 0.3848	782.2 ± 0.3	0.725 ± 0.016
303.15 K, x1 = 0.5098	784 ± 0.3	0.638 ± 0.014
303.15 K, x1 = 0.5987	785.4 ± 0.3	0.601 ± 0.013
303.15 K, x1 = 0.6986	786.9 ± 0.3	0.571 ± 0.013
303.15 K, x1 = 0.8138	788.7 ± 0.3	0.547 ± 0.012
303.15 K, x1 = 0.9278	790.5 ± 0.3	0.534 ± 0.012
303.15 K, x1 = 1	791.6 ± 0.3	0.523 ± 0.012
308.15 K, x1 = 0.067	773.2 ± 0.3	1.19 ± 0.026
308.15 K, x1 = 0.1344	774.1 ± 0.3	0.985 ± 0.021
308.15 K, x1 = 0.2044	775 ± 0.3	0.849 ± 0.018
308.15 K, x1 = 0.3035	776.4 ± 0.3	0.736 ± 0.016
308.15 K, x1 = 0.3848	777.5 ± 0.3	0.669 ± 0.015
308.15 K, x1 = 0.5098	779.3 ± 0.3	0.594 ± 0.013
308.15 K, x1 = 0.5987	780.7 ± 0.3	0.562 ± 0.013
308.15 K, x1 = 0.6986	782.2 ± 0.3	0.536 ± 0.012
308.15 K, x1 = 0.8138	784 ± 0.3	0.515 ± 0.012
308.15 K, x1 = 0.9278	785.7 ± 0.3	0.503 ± 0.012
308.15 K, x1 = 1	786.9 ± 0.3	0.493 ± 0.011
313.15 K, x1 = 0.067	768.7 ± 0.3	1.059 ± 0.023
313.15 K, x1 = 0.1344	769.5 ± 0.3	0.884 ± 0.019
313.15 K, x1 = 0.2044	770.4 ± 0.3	0.769 ± 0.017
313.15 K, x1 = 0.3035	771.8 ± 0.3	0.675 ± 0.015
313.15 K, x1 = 0.3848	772.9 ± 0.3	0.619 ± 0.014
313.15 K, x1 = 0.5098	774.7 ± 0.3	0.555 ± 0.013
313.15 K, x1 = 0.5987	776 ± 0.3	0.528 ± 0.012
313.15 K, x1 = 0.6986	777.5 ± 0.3	0.505 ± 0.012
313.15 K, x1 = 0.8138	779.3 ± 0.3	0.486 ± 0.011
313.15 K, x1 = 0.9278	781.1 ± 0.3	0.473 ± 0.011
313.15 K, x1 = 1	782.3 ± 0.3	0.463 ± 0.011
318.15 K, x1 = 0.067	764.1 ± 0.3	0.949 ± 0.021
318.15 K, x1 = 0.1344	764.8 ± 0.3	0.799 ± 0.017
318.15 K, x1 = 0.2044	765.7 ± 0.3	0.695 ± 0.015
318.15 K, x1 = 0.3035	767 ± 0.3	0.615 ± 0.014
318.15 K, x1 = 0.3848	768.1 ± 0.3	0.565 ± 0.013
318.15 K, x1 = 0.5098	769.9 ± 0.3	0.516 ± 0.012
318.15 K, x1 = 0.5987	771.2 ± 0.3	0.495 ± 0.011
318.15 K, x1 = 0.6986	772.7 ± 0.3	0.475 ± 0.011
318.15 K, x1 = 0.8138	774.6 ± 0.3	0.459 ± 0.011
318.15 K, x1 = 0.9278	776.4 ± 0.3	0.447 ± 0.01
318.15 K, x1 = 1	777.6 ± 0.3	0.437 ± 0.01
323.15 K, x1 = 0.067	759.4 ± 0.3	0.845 ± 0.018
323.15 K, x1 = 0.1344	760.2 ± 0.3	0.718 ± 0.016
323.15 K, x1 = 0.2044	761 ± 0.3	0.629 ± 0.014
323.15 K, x1 = 0.3035	762.3 ± 0.3	0.56 ± 0.013
323.15 K, x1 = 0.3848	763.4 ± 0.3	0.52 ± 0.012
323.15 K, x1 = 0.5098	765.2 ± 0.3	0.48 ± 0.011
323.15 K, x1 = 0.5987	766.5 ± 0.3	0.462 ± 0.011
323.15 K, x1 = 0.6986	768.1 ± 0.3	0.448 ± 0.01
323.15 K, x1 = 0.8138	769.9 ± 0.3	0.435 ± 0.01
323.15 K, x1 = 0.9278	771.8 ± 0.3	0.422 ± 0.01
323.15 K, x1 = 1	773 ± 0.3	0.41 ± 0.01
